In patent publication US20110159113A1, “HYPERBRANCHED POLYESTER AND A METHOD OF SYNTHESIZING A HYPERBRANCHED POLYESTER” (priority 2011, published 2011):

Tested on: tumor cells C26
Test: MTT assay, in vitro cytotoxicity, 72 h incubation
Assay type: cell-based
Experimental: In vitro cytotoxicity of CDDP, P(CA8-G)-CDDP and P(CA12-G)-CDDP was evaluated by using a MTT assay. To measure cytotoxicity, tumor cells C26 were separately incubated in a plate with different concentrations of CDDP, P(CA8-G)-CDDP and P(CA12-G)-CDDP. The duration of incubation was 72 h. […] With respect to FIG. 13, it is concluded that, loading of cisplatin into the P(CA8-G)-CDDP and P(CA12-G)-CDDP influences its cytotoxicity. […] According to the MTT assay measurements, IC50 doses of free cisplatin, P(CA8-G)-CDDP and P(CA12-G)-CDDP were calculated. IC50 dose is the concentrations of active ingredients necessary to inhibit the cell growth by 50%.
P(CA12-G)-CDDP was synthesized in the same manner as explained above. P(CA8-G)-CDDP and P(CA12-G)-CDDP were used for MTT assay measurements.

## N.N.[Cl][Pt][Cl] [CDDP, cis-dichlorodiammineplatinum (II)]
  IC50: 37.9 µg/mL
